Read-outs that look alike come from different tables or passages of the source.
Key:
[1] = biological target: T1, 5-HT1A receptor (Rattus norvegicus, UniProt P19327); test: Inhibition of [^3 H]-8-OH-DPAT binding to rat hippocampal membrane homogenates; details: for Ki: against [^3 H]-8-OH-DPAT, rat hippocampus membranes, read-out: K1 (inhibition constant)
T1 construct: from tissue; host or cells: rat hippocampus membrane homogenates
T1 sequence (P19327 1-422): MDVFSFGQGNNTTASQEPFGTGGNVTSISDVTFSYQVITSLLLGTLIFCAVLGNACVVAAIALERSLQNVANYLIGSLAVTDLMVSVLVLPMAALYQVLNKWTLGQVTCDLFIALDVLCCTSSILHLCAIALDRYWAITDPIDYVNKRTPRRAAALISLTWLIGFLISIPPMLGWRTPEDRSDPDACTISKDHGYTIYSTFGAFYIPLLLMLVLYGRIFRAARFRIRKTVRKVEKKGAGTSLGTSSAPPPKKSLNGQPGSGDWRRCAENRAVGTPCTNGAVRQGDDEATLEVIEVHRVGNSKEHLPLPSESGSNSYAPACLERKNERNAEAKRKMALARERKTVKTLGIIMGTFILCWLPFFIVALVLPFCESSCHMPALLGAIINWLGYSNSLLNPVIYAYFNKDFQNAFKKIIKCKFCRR
Method: The hippocampal homogenates were prepared in 100 volumes of ice-cold Tris-HCl buffer (50mM, pH 7.4) and centrifuged at 20,000 g for 20 minutes. […] The final pellets were resuspended in the Tris-buffer containing 2mM of MgCl2. […] The tubes were incubated at 37° C. for fifteen minutes and then terminated by vacuum filtration through glass filters (Schleicher & Schuell, No. 25, Keene, N.H.) soaked with 1% polyethylimine. […] Both Scatchard and competition experiments were analyzed using the iterative least-squarecurve fitting program LIGAND.

[2] = biological target: D3 receptors (expressed in Sf9 cells) (Rattus norvegicus, UniProt P19020)
Sequence of D3 receptors (expressed in Sf9 cells) (P19020 whole entry): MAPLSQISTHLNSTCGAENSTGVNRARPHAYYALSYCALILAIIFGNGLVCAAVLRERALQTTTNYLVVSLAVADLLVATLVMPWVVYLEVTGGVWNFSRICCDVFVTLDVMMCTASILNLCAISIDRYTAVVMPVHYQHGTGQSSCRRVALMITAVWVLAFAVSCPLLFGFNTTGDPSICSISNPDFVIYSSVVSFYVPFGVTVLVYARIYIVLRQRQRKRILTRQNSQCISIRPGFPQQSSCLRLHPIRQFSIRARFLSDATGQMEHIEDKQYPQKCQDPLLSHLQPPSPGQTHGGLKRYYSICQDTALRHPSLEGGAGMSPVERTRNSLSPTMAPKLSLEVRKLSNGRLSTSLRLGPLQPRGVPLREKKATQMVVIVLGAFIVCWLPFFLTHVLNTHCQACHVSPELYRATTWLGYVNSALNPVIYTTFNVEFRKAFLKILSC
Method: Plasmid DNA was isolated by alkaline dialysis and purified by CsCl density gradient centrifugation and overnight dialysis for transfection of Sf9 cells. […] A monolayer of Sf9 cells (approximately 2×10^6 cells/T25 plate) was cotransfected by calcium phosphate precipitation, with 1 mg of AcMNPV DNA (provided by Dr. Max Summers, Texas A&M University, College Station, Tex.) and 2 mg of recombinant transfer vector DNA. […] Putative recombinant viral plaques were chosen by visual screening for occlusion-negative plaques and used to infect 1×10^6 Sf9 cells in a 6-well plate (CoStar, Cambridge, Mass.). Four days after infection, cells were harvested and membranes were prepared. An aliquot of membranes was used for radioligand binding. […] The membrane homogenates of AcMNPVrD3 infected Sf9 cells were prepared as described. Briefly, the harvested cells were centrifuged, resuspended and homogenized in buffer containing 50 mM Tris, pH7.4, 150mM NaCl, 10 mM EDTA and a mixture of protease inhibitors (1 mg/ml aprotinin, 1 mg/ml leupeptin, 1 mg/ml soybean trypsin inhibitor, 10 mg/ml PMSF). The final pellets obtained were resuspended in the same buffer and kept at -20° C. for radioligand binding assays.
Binding assays were performed in glass tubes (12×75 mm) in a final volume of 0.2 ml. The buffer used for the dilution contained 50 mM Tris, pH 7.4, and the protease inhibitors mixture. […] The competition experiments were performed in the presence of 120 mM NaCl. […] After incubation for 30 min at 37° C. or 90 min at 25° C., the bound ligand was separated from the free ligand by filtration through glass fiber filters No. 25 (Schleicher & Schuell, Keene, N.H.) soaked with 0.2% protamine free base. The filters were then washed twice with 4 ml of ice-cold buffer (containing 50 mM Tris-HCl, pH 7.4) and the radioactivity on the filters was counted in a gamma counter (Packard 5000) with 70% efficiency.

[3] = biological target: T2, D2 dopamine receptor (Rattus norvegicus, UniProt P61169); test: Inhibition of [^125 I]NCQ298 binding to D2 dopamine receptors expressed in Sf9 cells; details: Table 4; Hill coefficient
T2 construct: made in house; host or cells: Sf9 insect cells infected with recombinant baculovirus (AcMNPVrD2L or AcMNPVrD2S), membrane homogenates
T2 sequence (P61169 whole entry): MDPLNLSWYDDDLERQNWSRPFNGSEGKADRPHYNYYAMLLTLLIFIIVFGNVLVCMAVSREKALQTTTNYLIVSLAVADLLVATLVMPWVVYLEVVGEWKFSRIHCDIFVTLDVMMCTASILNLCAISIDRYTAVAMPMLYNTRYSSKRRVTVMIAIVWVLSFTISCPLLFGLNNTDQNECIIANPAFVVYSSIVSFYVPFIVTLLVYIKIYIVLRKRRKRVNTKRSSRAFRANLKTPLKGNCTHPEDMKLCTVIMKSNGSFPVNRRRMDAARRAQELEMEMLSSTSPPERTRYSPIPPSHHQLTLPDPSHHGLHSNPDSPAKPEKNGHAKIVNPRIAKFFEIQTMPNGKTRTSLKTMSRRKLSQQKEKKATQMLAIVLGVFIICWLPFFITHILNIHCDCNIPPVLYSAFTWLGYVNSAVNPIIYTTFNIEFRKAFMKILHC

[4] = biological target: T3, D3 dopamine receptor (Rattus norvegicus, UniProt P19020); test: Inhibition of [^125 I]NCQ298 binding to D3 dopamine receptors expressed in Sf9 cells; details: Table 4; Hill coefficient
T3 construct: made in house; host or cells: Sf9 insect cells infected with recombinant baculovirus AcMNPVrD3, membrane homogenates
T3 sequence (P19020 whole entry): as the sequence (P19020 whole entry) above
Method: The construction of pVL1393-rD3 was previously described. […] An aliquot of membranes was used for radioligand binding.
Membranes from AcMNPV-rD3 infected Sf9 cells were prepared. […] Assays were incubated at 37° C. for 20 min. then filtered and washed as described above.

[5] = Stability of the radiolabelled product on storage (HPLC); format: physicochemical
Method: Hydrogen peroxide ([…]) was added to a mixture of […] (1mg/ml EtOH), […] and I-125 (2-3 mCi) in a sealed vial. The reaction was allowed to proceed for 20 min at room temperature, and was then terminated by addition of 0.1 ml of sodium bisulfite (300 mg/ml). The reaction mixture was extracted with ethyl acetate (3×1 ml) after neutralization with saturated NaHCO3 solution. The extracted ethyl acetate layers were evaporated to dryness, and the remaining residue was dissolved in EtOH and purified by HPLC using a reverse phase column (PRP-1 column, Hamilton Co., Reno, Nev.) eluted with an isocratic solvent of 80% acetonitrile-20% pH 7.0 buffer (5 mM 3,3'-dimethylglutaric acid). The fractions containing the desired product were collected, condensed and re-extracted with ethyl acetate (3×1 ml). The no-carrier-added final product (purity >98%) was evaporated to dryness and redissolved in […] with 100 mg ascorbic acid added as an anti-oxidant.
No-carrier-added [^125 I ]trans-8-OH-PIPAT(^125 I]8) was prepared by an iododestannylation reaction similar to the procedure reported previously (Acta. Chim. Scan., 1988, B42, 231-236). Hydrogen peroxide (50 μl 3% w/v) was added to a mixture of 50 μl of tributyltin precursor, 11 (11 mg/ml EtOH), 50 μl of 1N HCl and I-125 (2-3 mCi) in a sealed vial. The reaction was allowed to proceed for 20 minutes at room temperature, and was then terminated by addition of 0.1 ml of sodium bisulfite (300 mg/ml). The reaction mixture was extracted with ethyl acetate (3×1 ml) after neutralization with saturated NaHCO3 solution. The extracted ethyl acetate layers were evaporated to dryness, and the remaining residue was dissolved in EtOH and purified by HPCL using a reverse phase column (PRP-1 column, Hamilton Co., Reno, Nev.) eluted with an isocratic solvent of 80% acetonitrile-20% pH 7.0 buffer (5 mM 3,3'-dimethylglutaric acid); the retention time was 9 minutes (1 ml/min). The fractions containing the desired product were collected, condensed and re-extracted with ethyl acetate (3×1 ml). The final product of no-carrier-added (purity>98%) was evaporated to dryness and redissolved in 100 μl of 50% EtOH with 100 μg of ascorbic acid added as an anti-oxidant. The final product [^125 I] trans-8-OH-PIPAT(^125 I]8) was stored at -20° C.

[6] = system: dopamine D2S receptor; test: Specific binding of [^125 I]trans-7-OH-PIPAT to D2S receptors expressed in Sf9 cells; set-up: species or system rat; details: data not shown
[7] = system: dopamine D2L receptor; test: Specific binding of [^125 I]trans-7-OH-PIPAT to D2L receptors expressed in Sf9 cells; set-up: species or system rat; details: data not shown

Q: With CCCN(C/C=C/I)C1CCc2cccc(O)c2C1 (mixture of isomers) [(±)trans-8-OH-PIPAT, trans-8-Hydroxy-2-[N-propyl-N-(3'-iodo-2'propenyl)] aminotetralin] as the compound, how does the “affinity / selectivity for 5-HT1A” value [1] read?
A: Its value is “unique high affinity and selectivity toward serotonin 5-HT1A sites”.

Q: And the Ki [1]?
A: Its Ki is 0.92 ± 0.13 nM.

Q: For CCCN(C/C=C/I)C1CCc2cccc(OC)c2C1 (mixture of isomers) [(±)trans-8-OMe-PIPAT, trans-8-Methoxy-2-[N-propyl-N-(3'-iodo-2'propenyl)]aminotetralin], which Ki [1] is on record?
A: Its Ki is 12.6 ± 1.5 nM.

Q: With Oc1cccc2c1CC(NC/C=C/I)CC2 (racemic) [(±)trans-8-OH-IPAT, 8-Hydroxy-2-(N-3'-iodo-2'propenyl)aminotetralin] as the compound, how does the Ki [1] read?
A: The Ki was 10 ± 2 nM.

Q: Which Ki [1] does the source give for COc1cccc2c1CC(NC/C=C/I)CC2 (racemic) [(±)trans-8-OMe-IPAT, 8-Methoxy-2-(N-3'-iodo-2'-propenyl) aminotetralin] here?
A: The Ki was 17 ± 2.2 nM.

Q: Which “Hill Co.” value ([2]; Table 3, [^125 I]trans-7-OH-PIPAT competition, 37° C., 120 mM NaCl) does the source give for CCCN(CCC)C1CCc2ccc(O)cc2C1 (stereo not drawn) [7-OH-DPAT, 7Hydroxy-2-N,N-n-Dipropylaminotetralin, reference compound] here?
A: Its value is 0.87.

Q: What about the “affinity for the D3 receptor” value ([2]; competition with [^125 I]trans-7-OH-PIPAT) of the same compound?
A: Its value is “high affinity”.

Q: And the “HC D2” value [3]?
A: Its value is 1.02.

Q: What about the “HC D3” value [4] of the same compound?
A: Its value is 0.85.

Q: What does the source list for CCCN(C/C=C/[125I])C1CCc2cccc(O)c2C1 (stereo not drawn) [[^125 I] trans-8-OH-PIPAT]?
A: purity after storage for at least four weeks ([5]; -20° C., analyzed by HPLC, 40320 min): 95%; stability of the product on storage ([5]; stored at -20° C., 50% EtOH with ascorbic acid): stable for at least four weeks

Q: Which “specific binding toward D2S” value [6] does the source give for CCCN(C/C=C/[125I])C1CCc2ccc(O)cc2C1 (stereo not drawn) [[^125 I]trans-7-OH-PIPAT] here?
A: Its value is “no specific binding”.

Q: And the “stability of the product on storage” value [5]?
A: The value was “stable for at least four weeks”.

Q: What about the “purity after storage for at least four weeks” value ([5]; 50% etoh with ascorbic acid, 672 h) of the same compound?
A: The value was > 95%.

Q: What about the “specific binding toward D2L” value [7] of the same compound?
A: The value was “no specific binding”.

From patent US5690906A (The Trustees of the University of Pennsylvania, priority 1995, dated 1997)
